Assay results: ChEMBL document CHEMBL1201862, “PubChem BioAssay data set” (2004)
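48-hour exposure; five concentrations; linearly interpolated endpoints. GI50 = concentration required for 50% inhibition of growth.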 The source made the active and inactive calls. Rule as the data show it: active = GI50 up to about 1.1 µM and inactive = higher.

Key:
Assay in all cases: DTP human tumour cell line panel, 48 h
[1] = system: U-251
[2] = system: NCI-H23
[3] = system: Malme-3M
[4] = system: 786-0
[5] = system: CAKI-1
[6] = system: SK-MEL-2
[7] = system: HCT-15
[8] = system: UACC-257
[9] = system: UO-31
[10] = system: MDA-MB-435
[11] = system: TK-10
[12] = system: A498
[13] = system: SF-268
[14] = system: SW-620
[15] = system: HCC 2998
[16] = system: MCF7
[17] = system: SNB-75
[18] = system: ACHN
[19] = system: RXF 393
[20] = system: OVCAR-5
[21] = system: SF-295
[22] = system: SK-MEL-28
[23] = system: M14
[24] = system: MDA-MB-231
[25] = system: Hs-578T
[26] = system: OVCAR-4
[27] = system: IGROV-1
[28] = system: DU-145
[29] = system: COLO 205
[30] = system: UACC-62
[31] = system: HT-29
[32] = system: EKVX
[33] = system: K562
[34] = system: A549
[35] = system: BT-549
[36] = system: HCT-116
[37] = system: MDA-N
[38] = system: RPMI-8226
[39] = system: HOP-92
[40] = system: OVCAR-3
[41] = system: HOP-62
[42] = system: SK-OV-3
[43] = system: KM12
[44] = system: CCRF-CEM
[45] = system: MOLT-4
[46] = system: PC-3
[47] = system: OVCAR-8
[48] = system: SK-MEL-5
[49] = system: NCI-H522
[50] = system: SNB-19
[51] = system: NCI/ADR-RES
[52] = system: NCI-H460

**Q.** What does the source list for `CC(=O)ON(OC(C)=O)c1ccc(C)cc1`?
**A.** GI50 [1]: > 100 µM (inactive); GI50 [2]: > 100 µM (inactive); GI50 [3]: > 100 µM (inactive); GI50 [4]: > 100 µM (inactive); GI50 [5]: > 100 µM (inactive); GI50 [6]: > 100 µM (inactive); GI50 [7]: > 100 µM; GI50 [8]: > 100 µM (inactive); GI50 [9]: > 100 µM (inactive); GI50 [10]: > 100 µM (inactive); GI50 [11]: > 100 µM (inactive); GI50 [12]: > 100 µM (inactive); GI50 [13]: > 100 µM (inactive); GI50 [14]: > 100 µM (inactive); GI50 [15]: > 100 µM (inactive); GI50 [16]: > 100 µM (inactive); GI50 [17]: > 100 µM (inactive); GI50 [18]: > 100 µM (inactive); GI50 [19]: > 100 µM (inactive); GI50 [20]: > 100 µM (inactive); GI50 [21]: > 100 µM (inactive); GI50 [22]: > 100 µM (inactive); GI50 [23]: > 100 µM (inactive); GI50 [24]: > 100 µM (inactive); GI50 [25]: > 100 µM (inactive); GI50 [26]: > 100 µM (inactive); GI50 [27]: > 100 µM (inactive); GI50 [28]: > 100 µM (inactive); GI50 [29]: > 100 µM (inactive); GI50 [30]: > 100 µM (inactive); GI50 [31]: > 100 µM (inactive); GI50 [32]: > 100 µM (inactive); GI50 [33]: > 100 µM (inactive); GI50 [34]: > 100 µM (inactive); GI50 [35]: > 100 µM (inactive); GI50 [36]: > 100 µM (inactive); GI50 [37]: > 100 µM (inactive); GI50 [38]: > 100 µM (inactive); GI50 [39]: > 100 µM (inactive); GI50 [40]: > 100 µM (inactive); GI50 [41]: > 100 µM (inactive); GI50 [42]: > 100 µM (inactive); GI50 [43]: > 100 µM (inactive); GI50 [44]: < 0.01 µM (active); GI50 [45]: > 100 µM (inactive); GI50 [46]: > 100 µM (inactive); GI50 [47]: > 100 µM (inactive); GI50 [48]: > 100 µM (inactive); GI50 [49]: > 100 µM (inactive); GI50 [50]: > 100 µM (inactive); GI50 [51]: > 100 µM (inactive); GI50 [52]: > 100 µM (inactive)
